In patent US20090068290A1, “BIFEPRUNOX DOSES FOR TREATING SCHIZOPHRENIA” (priority 2006, published 2009):

Tests used:
Type in all cases: in vivo, human
[1] = tested on: adult subjects with schizophrenia; experiment: BPRS psychosis cluster score, Clinical Study One; conditions: for Change from Baseline in BPRS Psychosis Cluster Score, Mean (S.D.) / Change from Baseline in BPRS Psychosis Cluster Score, Median: LOCF
Protocol: There were five treatment groups in this study. […] Study medication was administered once daily. After Baseline measurements were performed, the titration phase was begun. Bifeprunox treated subjects were titrated up to 5 mg, 10 mg or 20 mg according to a standardized titration schedule (Day 1: 0.125 mg, Day 2: 0.25 mg, Day 3: 0.5 mg, Day 4: 1.0 mg, Day 5: 2.0 mg, Day 6: 5.0 mg, Day 7: 10.0 mg, Day 8: 20 mg). When the assigned dose was reached, subjects were maintained at that dose for the remainder of the six-week treatment period.

[2] = tested on: adult subjects with schizophrenia; experiment: PANSS negative symptom subscale score, Clinical Study Two; conditions: LOCF, ITT; for PANSS Negative Symptom Subscale Score, Trt Effect (bifeprunox—placebo): ANCOVA
Protocol: (§1) Rating scale assessments were performed weekly, except for week 5, to measure the change from baseline to endpoint of the PANSS total score. Other assessments included: PANSS positive symptom subscale score, PANSS negative symptom subscale score, PANSS general pschopathology subscale score, BPRS total score, BPRS psychosis score, the CGI-S score, the CGI-I score, responder rates based on the PANSS total score, and the Calgary Depression Scale for Schizophrenia (CDSS). […]
(§2) Subjects who completed this study had the option to continue in the long-term. […] Risperidone-treated subjects were titrated from 2 mg to 6 mg daily over a three-day period and were subsequently maintained at 6 mg/day for the remainder of the treatment period. […] Blood samples were also obtained at Screening/Baseline, Week 3, and Week 6 for clinical laboratory assessments.

[3] = tested on: adult subjects with schizophrenia; experiment: CGI Severity of Illness score, Clinical Study Two; conditions: for Change from Baseline in CGI Severity of Illness Score, Mean (SD) / Change from Baseline in CGI Severity of Illness Score, Median / Change from Baseline in CGI Severity of Illness Score, Trt Effect (bifeprunox—placebo) / mean change (SD) from Baseline to Endpoint in CGI severity of illness score: LOCF; for Change from Baseline in CGI Severity of Illness Score, Mean (SD) / Change from Baseline in CGI Severity of Illness Score, Median / Change from Baseline in CGI Severity of Illness Score, Trt Effect (bifeprunox—placebo): ITT population; for CGI severity of illness score, treatment effect (bifeprunox—placebo): Endpoint LOCF; for mean change (SD) from Baseline to Endpoint in CGI severity of illness score: ITT
Protocol: as §1, §2

[4] = tested on: adult subjects with schizophrenia; experiment: CGI Severity of Illness score, Clinical Study Three; conditions: for CGI Severity of Illness Score, Trt Effect / Change from Baseline in CGI Severity of Illness Score, Mean (SD) / Change from Baseline in CGI Severity of Illness Score, Median / mean change (SD) from Baseline to Endpoint in CGI severity of illness score: LOCF; for CGI severity of illness score, treatment effect (bifeprunox—placebo): Endpoint LOCF; for mean change (SD) from Baseline to Endpoint in CGI severity of illness score: ITT
[5] = Bifeprunox 20 mg, Week 1, ITT population
[6] = Bifeprunox 20 mg, Week 3, ITT population
[7] = Bifeprunox 20 mg, Week 4, ITT population
[8] = Bifeprunox 30 mg, Week 6/Endpoint
[9] = Bifeprunox 40 mg, Week 6/Endpoint

With `O=c1[nH]c2cccc(N3CCN(Cc4cccc(-c5ccccc5)c4)CC3)c2o1` [Bifeprunox, 7-[4-([1,1′-biphenyl]-3-ylmethyl)-1-piperazinyl]-2(3H)-benzoxazolone] the “Change from Baseline in BPRS Psychosis Cluster Score, Trt Effect (bifeprunox—placebo)” value ([1]; Bifeprunox 20 mg, Endpoint LOCF, ITT population) was −1.1, the “Change from Baseline in BPRS Psychosis Cluster Score, Mean (S.D.)” value (shortened to “Change from Baseline … (S.D.)”) [1, 5] was −1.5 (2.6) and the “Change from Baseline in BPRS Psychosis Cluster Score, Median” value [1, 5] was −1. For the same compound, the “Change from Baseline in BPRS Psychosis Cluster Score, Median” value ([1]; Bifeprunox 20 mg, Week 2, ITT population) was −2, the “Change from Baseline … (S.D.)” value [1, 6] was −2.7 (3.5) and the “Change from Baseline in BPRS Psychosis Cluster Score, Median” value [1, 6] was −3. For the same compound, the “Change from Baseline … (S.D.)” value [1, 7] was −2.8 (3.7), the “Change from Baseline in BPRS Psychosis Cluster Score, Median” value [1, 7] was −3 and the “BPRS psychosis cluster score, treatment effect (bifeprunox—placebo)” value ([1]; bifeprunox 20 mg, Endpoint LOCF) was −1.1. The “Change from Baseline in PANSS Negative Symptom Subscale Score, Mean (SD)” value ([2]; Bifeprunox 30 mg, Week 1) was −1.6 (3.7), the “Change from Baseline in PANSS Negative Symptom Subscale Score, Median” value ([2]; Bifeprunox 30 mg, Week 1) was −1 and the “Change from Baseline in PANSS Negative Symptom Subscale Score, Mean (SD)” value ([2]; Bifeprunox 30 mg, Week 2) was 2.6 (4.4). The “Change from Baseline in PANSS Negative Symptom Subscale Score, Median” value ([2]; Bifeprunox 30 mg, Week 2) was −2, the “Change from Baseline in PANSS Negative Symptom Subscale Score, Mean (SD)” value ([2]; Bifeprunox 30 mg, Week 3) was −3.0 (5.0) and the “Change from Baseline in PANSS Negative Symptom Subscale Score, Median” value ([2]; Bifeprunox 30 mg, Week 3) was −3. For the same compound, the “Change from Baseline in PANSS Negative Symptom Subscale Score, Mean (SD)” value ([2]; Bifeprunox 30 mg, Week 4) was −3.1 (5.3), the “Change from Baseline in PANSS Negative Symptom Subscale Score, Median” value ([2]; Bifeprunox 30 mg, Week 4) was −2 and the “Change from Baseline in PANSS Negative Symptom Subscale Score, Mean (SD)” value [2, 8] was −3.1 (5.6). The “Change from Baseline in PANSS Negative Symptom Subscale Score, Median” value [2, 8] was −2, the “PANSS Negative Symptom Subscale Score, Trt Effect (bifeprunox—placebo)” value [2, 8] was −1.4 and the “Change from Baseline in PANSS Negative Symptom Subscale Score, Mean (SD)” value ([2]; Bifeprunox 40 mg, Week 1) was −1.2 (3.3). The “Change from Baseline in PANSS Negative Symptom Subscale Score, Median” value ([2]; Bifeprunox 40 mg, Week 1) was −1, the “Change from Baseline in PANSS Negative Symptom Subscale Score, Mean (SD)” value ([2]; Bifeprunox 40 mg, Week 2) was −1.9 (4.0) and the “Change from Baseline in PANSS Negative Symptom Subscale Score, Median” value ([2]; Bifeprunox 40 mg, Week 2) was −2. The “Change from Baseline in PANSS Negative Symptom Subscale Score, Mean (SD)” value ([2]; Bifeprunox 40 mg, Week 3) was −2.2 (4.7), the “Change from Baseline in PANSS Negative Symptom Subscale Score, Median” value ([2]; Bifeprunox 40 mg, Week 3) was −1 and the “Change from Baseline in PANSS Negative Symptom Subscale Score, Mean (SD)” value ([2]; Bifeprunox 40 mg, Week 4) was −2.1 (4.9). The “Change from Baseline in PANSS Negative Symptom Subscale Score, Median” value ([2]; Bifeprunox 40 mg, Week 4) was −1, the “Change from Baseline in PANSS Negative Symptom Subscale Score, Mean (SD)” value [2, 9] was −2.2 (5.4) and the “Change from Baseline in PANSS Negative Symptom Subscale Score, Median” value [2, 9] was −1. The “PANSS Negative Symptom Subscale Score, Trt Effect (bifeprunox—placebo)” value [2, 9] was −0.9, the “Change from Baseline in CGI Severity of Illness Score, Mean (SD)” value (shortened to “Change from Baseline in CGI Severity … (SD)”) ([3]; Bifeprunox 30 mg, Week 1) was −0.33 (0.77) and the “Change from Baseline in CGI Severity of Illness Score, Median” value (“Change … of Illness Score, Median” for short) ([3]; Bifeprunox 30 mg, Week 1) was 0.0. For the same compound, the “Change from Baseline in CGI Severity … (SD)” value ([3]; Bifeprunox 30 mg, Week 2) was −0.58 (0.97), the “Change … of Illness Score, Median” value ([3]; Bifeprunox 30 mg, Week 2) was 0.0 and the “Change from Baseline in CGI Severity … (SD)” value ([3]; Bifeprunox 30 mg, Week 3) was −0.67 (1.08). The “Change … of Illness Score, Median” value ([3]; Bifeprunox 30 mg, Week 3) was 0.0, the “Change from Baseline in CGI Severity … (SD)” value ([3]; Bifeprunox 30 mg, Week 4) was −0.68 (1.11) and the “Change … of Illness Score, Median” value ([3]; Bifeprunox 30 mg, Week 4) was 0.0. For the same compound, the “Change from Baseline in CGI Severity … (SD)” value [3, 8] was −0.69 (1.19), the “Change … of Illness Score, Median” value [3, 8] was 0.0 and the “Change from Baseline in CGI Severity of Illness Score, Trt Effect (bifeprunox—placebo)” value [3, 8] was −0.28. For the same compound, the “Change from Baseline in CGI Severity … (SD)” value ([3]; Bifeprunox 40 mg, Week 1) was −0.28 (0.65), the “Change … of Illness Score, Median” value ([3]; Bifeprunox 40 mg, Week 1) was 0.0 and the “Change from Baseline in CGI Severity … (SD)” value ([3]; Bifeprunox 40 mg, Week 2) was −0.43 (0.90). For the same compound, the “Change … of Illness Score, Median” value ([3]; Bifeprunox 40 mg, Week 2) was 0.0, the “Change from Baseline in CGI Severity … (SD)” value ([3]; Bifeprunox 40 mg, Week 3) was −0.54 (1.02) and the “Change … of Illness Score, Median” value ([3]; Bifeprunox 40 mg, Week 3) was 0.0. For the same compound, the “Change from Baseline in CGI Severity … (SD)” value ([3]; Bifeprunox 40 mg, Week 4) was −0.51 (1.08), the “Change … of Illness Score, Median” value ([3]; Bifeprunox 40 mg, Week 4) was 0.0 and the “Change from Baseline in CGI Severity … (SD)” value [3, 9] was −0.54 (1.12). The “Change … of Illness Score, Median” value [3, 9] was 0.0, the “Change from Baseline in CGI Severity of Illness Score, Trt Effect (bifeprunox—placebo)” value [3, 9] was −0.18 and the “CGI severity of illness score, treatment effect (bifeprunox—placebo)” value ([3]; bifeprunox 30 mg) was −0.28. For the same compound, the “mean change (SD) from Baseline to Endpoint in CGI severity of illness score” value (“mean change (SD) from Baseline” for short) ([3]; bifeprunox 30 mg) was −0.69 (1.19), the “CGI severity of illness score, treatment effect (bifeprunox—placebo)” value ([3]; bifeprunox 40 mg) was −0.18 and the “mean change (SD) from Baseline” value ([3]; bifeprunox 40 mg) was −0.54 (1.12). For the same compound, the “CGI Severity of Illness Score, Trt Effect” value ([4]; 20 mg versus placebo, Week 6/Endpoint) was −0.13, the “Change from Baseline in CGI Severity … (SD)” value ([4]; 20 mg, Week 1) was −0.23 (0.63) and the “Change … of Illness Score, Median” value ([4]; 20 mg, Week 1) was 0.0. The “Change from Baseline in CGI Severity … (SD)” value ([4]; 20 mg, Week 2) was −0.48 (0.81), the “Change … of Illness Score, Median” value ([4]; 20 mg, Week 2) was 0.0 and the “Change from Baseline in CGI Severity … (SD)” value ([4]; 20 mg, Week 3) was −0.59 (0.89). The “Change … of Illness Score, Median” value ([4]; 20 mg, Week 3) was −1.0, the “Change from Baseline in CGI Severity … (SD)” value ([4]; 20 mg, Week 4) was −0.65 (0.95) and the “Change … of Illness Score, Median” value ([4]; 20 mg, Week 4) was −1.0. The “Change from Baseline in CGI Severity … (SD)” value ([4]; 20 mg, Week 6/Endpoint) was −0.63 (0.98), the “Change … of Illness Score, Median” value ([4]; 20 mg, Week 6/Endpoint) was −1.0 and the “CGI Severity of Illness Score, Trt Effect” value ([4]; 30 mg versus placebo, Week 6/Endpoint) was −0.09. The “Change from Baseline in CGI Severity … (SD)” value ([4]; 30 mg, Week 1) was −0.26 (0.60), the “Change … of Illness Score, Median” value ([4]; 30 mg, Week 1) was 0.0 and the “Change from Baseline in CGI Severity … (SD)” value ([4]; 30 mg, Week 2) was −0.41 (0.76). The “Change … of Illness Score, Median” value ([4]; 30 mg, Week 2) was 0.0, the “Change from Baseline in CGI Severity … (SD)” value ([4]; 30 mg, Week 3) was −0.50 (0.90) and the “Change … of Illness Score, Median” value ([4]; 30 mg, Week 3) was 0.0. The “Change from Baseline in CGI Severity … (SD)” value ([4]; 30 mg, Week 4) was −0.57 (0.89), the “Change … of Illness Score, Median” value ([4]; 30 mg, Week 4) was −1.0 and the “Change from Baseline in CGI Severity … (SD)” value ([4]; 30 mg, Week 6/Endpoint) was −0.62 (1.03). For the same compound, the “Change … of Illness Score, Median” value ([4]; 30 mg, Week 6/Endpoint) was −1.0, the “CGI severity of illness score, treatment effect (bifeprunox—placebo)” value ([4]; bifeprunox 20 mg) was −0.13 and the “mean change (SD) from Baseline” value ([4]; bifeprunox 20 mg) was −0.63 (0.98). The “CGI severity of illness score, treatment effect (bifeprunox—placebo)” value ([4]; bifeprunox 30 mg) was −0.09 and the “mean change (SD) from Baseline” value ([4]; bifeprunox 30 mg) was −0.62 (1.03).
